# In patent publication US5585385A, “Heterocyclic compounds, their production and use as tachykinin reactor antagonists” (Takeda Chemical Industries, Ltd., priority 1993, dated 1996):
# Experiments:
# substance P receptor = biological target: T1, substance P receptor (Homo sapiens, UniProt P25103); experiment: Radioligand receptor binding inhibitory activity using receptor from human lymphoblast cells (IM-9), 125I-BHSP; details: human IM-9 cell receptor, 25° C., 30 minutes, pH 7.4, n=1
# T1 construct: The receptor was prepared from human lymphoblast cells (IM-9); endogenous in cells; host or cells: IM-9 human lymphoblast cells (crude membrane preparation)
# T1 sequence (P25103 whole entry): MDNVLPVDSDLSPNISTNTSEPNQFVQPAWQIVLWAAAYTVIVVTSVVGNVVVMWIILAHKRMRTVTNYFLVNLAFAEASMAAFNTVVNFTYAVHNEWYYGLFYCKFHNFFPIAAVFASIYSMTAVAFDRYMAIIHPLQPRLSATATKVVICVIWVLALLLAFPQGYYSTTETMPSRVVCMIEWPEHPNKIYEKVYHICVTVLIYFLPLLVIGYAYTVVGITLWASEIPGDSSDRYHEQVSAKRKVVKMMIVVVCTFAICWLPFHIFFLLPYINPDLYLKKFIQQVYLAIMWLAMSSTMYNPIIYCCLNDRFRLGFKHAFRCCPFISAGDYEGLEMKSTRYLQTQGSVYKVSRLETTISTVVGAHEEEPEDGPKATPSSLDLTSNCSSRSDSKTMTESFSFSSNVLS
# Procedure: Radioligand receptor binding inhibitory activity
# Binding inhibitory activity using receptor from human lymphoblast cells (IM-9)
# The method of A. Margaret "Molecular Pharmacology 42, p.458 (1992)" was modified and used. The receptor was prepared from human lymphoblast cells (IM-9). IM-9 cells (2×10^5 cells/ml) were inoculated and incubated for 3 days (one liter), which was then subjected to centrifuge for 5 minutes at 500×g to obtain cell pellets. The pellets were washed once with phosphate buffer (Flow Laboratories, CAT. No. 28-103-05), which were then crushed using Polytron.homogenizer "Kinematika, Germany" in 30 ml of 50 mM Tris-HCl buffer (pH 7.4) containing 120 mM sodium chloride, 5 mM potassium chloride, 2 μg/ml chymostatin, 40 μg/ml bacitracin, 5 μg/ml phosphoramidon, 0.5 mM phenylmethyl sulfonyl fluoride, 1 mM ethylenediamine tetra-acetic acid, which was subjected to centrifuge at 40,000×g for 20 minutes. The residue was washed twice with 30 ml of the above-mentioned buffer, which was then preserved frozen (-80° C.) as a specimen of the receptor.
# The specimen was suspended in a reaction buffer (50 mM Tri-HCl buffer (pH 7.4), 0.02% bovine serum albumin, 1 mM phenylmethylsulfonyl fluoride, 2 μg/chymostatin, 40 μg/ml bacitracin, 3 mM manganese chloride) and 100 ul portion was the suspension was used in the reaction. After addition of the sample and ^125 I-BHSP (0.46 KBq), the reaction was allowed to proceed in 0.2 ml of reaction buffer at 25° C. for 30 minutes. The amount of nonspecific binding was determined by adding substance P at a final concentration of 2×10^-6 M. After the reaction, using a cell harvester (290 PHD, Cambridge Technology, Inc, U.S.A.), rapid filtration was carried out through a glass filter (GF/B, Whatman, U.S.A.) to stop the reaction. After washing three times with 250 ul of 50 mM of Tris-HCl buffer (pH 7.4) containing 0.02% bovine serum albumin, the radioactivity remaining on the filter was determined with a gamma counter. Before use, the filter was immersed in 0.1% polyethyleneimine for 24 hours and air-dried. […] (Radioligand means substance P labelled with ^125 I.) The number of this experiment is one.
# [1] = system: plasma extravasation induced by capsaicin in trachea; experiment: Inhibitory effect on plasma extravasation induced by capsaicin in trachea of guinea pigs; assay type: in vivo, guinea pigs (Hartley type white male); details: Cavia porcellus, iv, 5 min, 5 min before capsaicin (150 μg/kg i.v.), guinea pig trachea, n=6
# Procedure: Inhibitory effect on plasma extravasation induced by capsaicin in trachea of guinea pigs
# Guinea pigs (Hartley type white male guinea pigs), (n=6) were anesthetized with 35 mg/kg of pentobarbital injected intraperitoneally (i.p.), then test compounds were administered intravenously (i.v.). After 5 minutes, a mixed solution of capsaicin (150 μg/kg) and Evans' blue dye (20 mg/kg) was administered intravenously to cause reaction. Ten minutes later, test animals were sacrificed by cutting the aorta, then perfused through pulmonary artery with 50 ml of physiological saline. The trachea was excised, and its wet weight was measured. The trachea was incubated at room temperature in 1 ml of acetone-0.3% sodium sulfate (7:3) overnight and Evans' blue dye was extracted from the trachea. The extract solution was centrifuged at 2800 rpm for 5 minutes. The amount of Evans' blue dye in the supernatant was quantified by measuring absorbance at […].
# Plasma extravasation was expressed in terms of the amount of Evans' blue dye (μg) relative to the weight of the trachea (g). The efficacy of the drug was evaluated by calculating the % inhibition in accordance with the following formula. [formula] A: the amount of Evan's blue dye (μg/g) in each test animal B: the mean amount of Evan's blue dye (μg/g) of the group untreated with capsaicin.
# C: the mean amount of Evan's blue dye (μg/g) of control group
SMILES,IC50 (substance P receptor) [nM],inhibition in vivo at 0.1 mg/kg ([1]; 0.1 mg/kg i.v.) [%],inhibition in vivo at 0.03 mg/kg ([1]; 0.03 mg/kg i.v.) [%]
"Cc1ccc(-c2c(C(=O)N(C)Cc3cc(C(F)(F)F)cc(C(F)(F)F)c3)n(C)c(=O)c3cnccc23)cc1 [Example 58, N-[3,5-Bis(trifluoromethyl)benzyl]-1,2-dihydro-N, 2-dimethyl-4-(4-methylphenyl)-1-oxo-3-pyrido[3,4-c]pyridinecarboxamide]",0.72,35.2,
"Cc1ccc(-c2c3c(c(=O)n(C)c2C(=O)N(C)Cc2cc(C(F)(F)F)cc(C(F)(F)F)c2)CN(C)CC3)cc1 [Example 59, N-[3,5-Bis(trifluoromethyl)benzyl]-1,2,5,6,7,8-hexahydro-N,2,7-trimethyl-4-(4-methylphenyl)-1-oxo-3-pyrido[3,4-c]pyridinecarboxamide]",0.12,,55
